Here are results for 6 molecules from US8722729B2, “Unsaturated fatty acid monoesters and diesters on ascorbic acid and cosmetic uses thereof” (Pierre Fabre Dermo-Cosmetique, priority 2009, dated 2014).

Structures are written as SMILES. Entries after “also recorded” stand apart in the source; their conditions may differ.

Experiment [1] deals with T1, hyaluronidase of bovine origin (BTH, Bovine Testis hyaluronidase) (Bos taurus, UniProt Q2YDK3).
T1 sequence (Q2YDK3 1-553): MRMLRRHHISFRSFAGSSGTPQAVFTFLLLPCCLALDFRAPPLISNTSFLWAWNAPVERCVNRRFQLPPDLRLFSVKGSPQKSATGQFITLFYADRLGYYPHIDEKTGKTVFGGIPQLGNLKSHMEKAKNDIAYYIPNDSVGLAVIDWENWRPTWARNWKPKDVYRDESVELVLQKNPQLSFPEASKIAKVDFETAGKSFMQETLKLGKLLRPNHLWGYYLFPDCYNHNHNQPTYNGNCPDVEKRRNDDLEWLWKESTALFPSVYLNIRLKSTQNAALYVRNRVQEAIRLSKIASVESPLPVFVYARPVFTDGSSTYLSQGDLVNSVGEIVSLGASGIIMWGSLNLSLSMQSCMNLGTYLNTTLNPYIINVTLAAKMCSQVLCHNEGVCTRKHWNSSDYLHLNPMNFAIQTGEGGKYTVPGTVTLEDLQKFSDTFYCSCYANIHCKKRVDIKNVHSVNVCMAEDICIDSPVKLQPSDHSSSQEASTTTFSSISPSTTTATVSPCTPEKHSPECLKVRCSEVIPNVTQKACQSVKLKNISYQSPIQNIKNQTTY
Nature of the experiment: Assay of hyaluronidase activity (residual HA, HA-ELISA). In kind it is biochemical. The method, then:
Hyaluronidase activity is measured by the assay of residual hyaluronic acid (HA). The substrate is fixed to a carrier then placed in the presence of an enzyme and a quantity of compound to be tested. The residual HA i.e. the non-hydrolyzed HA is assayed using a HA-Elisa detection system: Hyaluronan enzyme-linked immunosorbent assay (Echelon Biosciences®).
0.5 units of hyaluronidase of bovine origin (BTH, Bovine Testis hyaluronidase) were pre-incubated at 37° C. with the compound to be tested. This mixture was deposited on the HA fixed to the surface of a microplate well. The enzymatic reaction took place at pH 7.2n at 37° C. Washing was followed by a recognition step of residual HA by hyaluronectin (NH). The quantity of bonded NH was measured by ELISA using an anti-NH antibody conjugated with alkaline phosphatase. The p-nitrophenyl phosphate disodium salt (pnNpp) substrate of the phosphatase allows spectrometric detection at 405 nm. (Delpech B et al., Analytical Biochemistry 149, 555(565 (1985); Robert Stern et al. Analytical Biochemistry 251, 263-269 (1997)). OD intensity was correlated with the quantity of residual HA. The quantity of residual HA is directly linked to enzymatic activity. In the presence of an inhibitor, the larger the quantity of residual HA the more the sample is inhibiting. A percentage inhibition of hyaluronidase will be expressed.
Therefore the net enzymatic activities were calculated which represent the difference in mean gross activity without enzyme and the gross activity of the enzyme with or without the compound to be tested.
The percentage enzymatic inhibition related to the compound to be tested was calculated as follows: % inhibition=(Maximum net enzymatic activity)−Net enzymatic activity in the presence of the compound to be tested)/Maximum net enzymatic activity.
where the maximum net enzymatic activity represents the mean net enzymatic activity of 0.5 U.
Background: An ELISA detects its analyte on a solid surface through an enzyme-linked reagent.

Experiment [2] concerns B16-F10 cells. Nature of the experiment: Assay of melanin in B16-F10 cells (colorimetric, α-MSH stimulated). The conditions noted are these: for inhibition at 10 µM / inhibition at 20 µM / IC50 / inhibition at 50 µM / inhibition at 100 µM: Mus musculus; for inhibition at 10 µM / inhibition at 20 µM / inhibition at 50 µM / inhibition at 100 µM: B16-F10, 72 hours, read-out: Percentage inhibition of intracellular melanin; for IC50: B16-F10, α-MSH stimulated, read-out: IC50 intracellular melanin. The experiment is classed as cell-based, murine. The method, then:
Similarly, to evidence the depigmenting activity of the compounds of general formula (I) according to the invention, the effect of these compounds was measured on the synthesis of melanin by colorimetric assay on a cell line of murine melanomas: line B16-F10.
This is a test to measure the synthesis of melanin by colorimetric assay on a cell line of murine melanomas: line B16-F10. This test allows the evaluation of the depigmenting property of active ingredients.
The B16-F10 cells were seeded onto 96-well plates in DMEM medium supplemented with FCS (fetal calf serum) and incubated 24 hours at 37° C., 5% CO2. The cells were then stimulated with α-MSH (to stimulate the synthesis of melanin, the stimulation observed was about 150%) and treated 72 hours with the active ingredients to be tested. Each concentration of active ingredient was tested at least in triplicate. Total melanin followed by intracellular melanin dissolved in lysis buffer were then assayed by absorbency reading at 405 nm. The total proteins were determined in the lysate and the results are expressed in mg melanin/mg proteins. The percentage activity was calculated as follows: […]
A negative value indicates an inhibition, whereas a positive value indicates induced synthesis of melanin.

For experiment [3], the system named is Human dermal papilla cells. Nature of the experiment: In vitro stimulation of the proliferation of dermal papilla cells (BrdU incorporation). In kind it is cell-based. The method, then:
Human dermal papilla cells (Promocell) were placed in culture and held in early passage culture in DMEM medium supplemented with 10% FCS. They were then seeded in a 96-well plate in DMEM medium supplemented with 10% FCS for 12 h. The culture medium was replaced by serum-free DMEM medium then by DMEM supplemented with 1% FCS and molecules 1, 2, 3 and 4 at the different tested concentrations After incubation for 60 h, cell proliferation was evaluated by incorporation of BrdU.
The diagrams in appended FIG. 1 show the increase in BrdU incorporation and the stimulated cellular proliferation of the cells in the presence of the different molecules (as a percent of the control).
Background: Dividing cells build labelled thymidine or BrdU into new DNA.

For experiment [4], the system named is human hair follicle. Nature of the experiment: Stimulation of the growth of the human hair follicle (Philpott culture). In kind it is cell-based. Conditions: 15 μM; for D4 % activity (hair growth stimulation compared with the control) / D4 % growth: 4 days' culture; for D8 % activity (hair growth stimulation compared with the control) / D8 % growth: 8 days' culture. The method, then:
(§1) Biopsies of the occipital region of a human scalp were obtained from operative waste. The hair follicles were isolated by micro-dissection under binocular magnification. They were individually placed in culture following Philpott's technique (Philpott M P et al, J Cell Sci. 97:463-471, 1990). The hair follicles in anagen phase were incubated in 24-well culture dishes in the presence of William's medium supplemented with 10 μg/mL Insulin, 10 μg/mL Transferrin, 10 ng/mL Hydrocortisone, 1 mM Glutamax I, 100 U/mL Penicillin, 100 μg/mL Streptomycin, 250 ng/mL Amphotericin B and in the presence of molecules 3 or 4 for 11 days. The incubation medium was regularly renewed. The lengthening (in μm) of each hair follicle was measured at 4 and 8 days' culture in captured images of the hair follicles.
The diagrams in appended FIG. 2 show the effect of molecules 3 and 4 on the lengthening of hair follicles after incubation for 4 days and for 8 days.
The following table (Table 5) gives the growth percentages obtained for each treatment condition and the percentages for stimulated hair growth obtained with molecules 3 and 4 compared with the control.

Experiment [5] relates to human hair follicle. Nature of the experiment: Evaluation of hair bulb degeneration (apoptotic follicles at D11). In kind it is cell-based. The method, then:
as §1
The degeneration of the follicle when kinetics cease after 11 culture days, is evaluated by observation of morphological damage of the hair bulb (rounding, deformation). The percentage apoptosis is calculated by counting the number of apoptotic hair follicles relative to the total number of follicles

The mark [6] stands for this setting: 0.5 U BTH, read-out: Enzymatic inhibition (mean as a percentage).

Turning to `CCCCCCCCCCCCCCCC(=O)OC[C@H](O)[C@H]1OC(=O)C(O)=C1O` [6-ascorbyl palmitate, reference compound], in experiment [1], the “Effect on hyaluronidase” value is given as “advantageously inhibits hyaluronidase, from 10 to 250 μM, with dose effect”. In addition, in experiment [1] (setting [6]), the inhibition at 10 µM came out at 31% and the inhibition at 50 µM came out at 71%. Besides, in experiment [1] (25 μM, 0.5 U BTH, read-out: Enzymatic inhibition (mean as a percentage)), the inhibition at 25 µM was determined as 57%. For the same molecule, in experiment [1] (100 μM, 0.5 U BTH, read-out: Enzymatic inhibition (mean as a percentage)), the inhibition at 100 µM came out at 73%. Further, the inhibition at 200 µM in experiment [1] (200 μM, 0.5 U BTH, read-out: Enzymatic inhibition (mean as a percentage)) turned out to be 79%. The inhibition at 250 µM in experiment [1] (250 μM, 0.5 U BTH, read-out: Enzymatic inhibition (mean as a percentage)) stood at 112%.
On to `CC/C=C\C/C=C\C/C=C\CCCCCCCC(=O)OC1=C(OC(=O)CCCCCCC/C=C\C/C=C\C/C=C\CC)C(C2COC(C)(C)O2)OC1=O` (centres unmarked) [Molecule 2, dioctadeca-9,12,15-trienoate of (9Z,9′Z,12Z,12′Z,15Z,15′Z)-2-(2,2-dimethyl-1,3-dioxolan-4-yl)-5-oxo-2,5-dihydrofuran-3,4-diyl], for which, in experiment [2], the “Inhibition of the synthesis of intracellular melanin compared with vitamin C” value (“Inhibition … compared with vitamin C” below) is on record as “greater than that of vitamin C”, the inhibition at 10 µM came out at 11%, the inhibition at 20 µM is 53% and the IC50 came out at 20 µM. In experiment [3], the “Proliferation of dermal papilla cells” value is “induce proliferation of the cells but to a lesser extent than molecules 1 and 4”.
Turning to `CCCCC/C=C\C/C=C\C/C=C\CCCCC(=O)OC1=C(OC(=O)CCCC/C=C\C/C=C\C/C=C\CCCCC)C(C2COC(C)(C)O2)OC1=O` (centres unmarked) [Molecule 3, dioctadeca-6,9,12-trienoate of (6Z,6′Z,9Z,9′Z,12Z,12′Z)-2-(2,2-dimethyl-1,3-dioxolan-4-yl)-5-oxo-2,5-dihydrofuran-3,4-diyl], in experiment [4], the “D4 % activity (hair growth stimulation compared with the control)” value came to 25%, the D4 % growth was 52%, the “D8 % activity (hair growth stimulation compared with the control)” value was 18% and the D8 % growth is on record as 85%. Moreover, in experiment [2], the “Inhibition … compared with vitamin C” value is reported as “greater than that of vitamin C”, the inhibition at 10 µM worked out at 25%, the inhibition at 20 µM came to 50% and the IC50 is 20 µM. Besides, in experiment [3], the “Proliferation of dermal papilla cells” value is “induce proliferation of the cells but to a lesser extent than molecules 1 and 4”.
Consider `CCCCCCCC/C=C\CCCCCCCC(=O)OC1=C(OC(=O)CCCCCCC/C=C\CCCCCCCC)C(C2COC(C)(C)O2)OC1=O` (centres unmarked) [Molecule 4, dioleate of (Z)-2-(2,2-dimethyl-1,3-dioxolan-4-yl)-5-oxo-2,5-dihydrofuran-3,4-diyl], for which, in experiment [1], the “Effect on hyaluronidase” value is reported as “strongly inhibit hyaluronidase; also recorded: equivalent to or more active than ascorbyl palmitate”. In experiment [1] (setting [6]), the inhibition at 10 µM worked out at 72% and the inhibition at 50 µM is 111%. For the same molecule, in experiment [4], the “D4 % activity (hair growth stimulation compared with the control)” value came out at 19%, the D4 % growth is reported as 51%, the “D8 % activity (hair growth stimulation compared with the control)” value was 12% and the D8 % growth stood at 84%. Further, in experiment [2], the “Inhibition … compared with vitamin C” value is listed as “greater than that of vitamin C”, the inhibition at 10 µM is -16%, the inhibition at 20 µM was found to be 6% and the inhibition at 50 µM is 44%. Further, in experiment [2], the IC50 stood at 53 µM. In addition, the “Number of apoptotic bulbs at D11 (Number of total follicles)” value in experiment [5] (15 μM, 11 days of incubation) is given as 6 (12). Also, the “% apoptosis” value in experiment [5] (15 μM, 11 days of incubation, control 75) amounted to 50%. The “Effect on hair degeneration” value in experiment [5] (11 days) is reported as “marked limiting of hair degeneration”. The “Proliferation stimulation of dermal papilla cells” value in experiment [3] (6.25 μM, 60 h) was 113.9%.
For `CCCCC/C=C\C/C=C\CCCCCCCC(=O)OC1=C(O)C(C2COC(C)(C)O2)OC1=O` (centres unmarked) [Molecule 5, (9Z,12Z)-5-(2,2-dimethyl-1,3-dioxolan-4-yl)-4-hydroxy-2-oxo-2,5-dihydrofuran-3-yl octadeca-9,12-dienoate], the “Effect on hyaluronidase” value in experiment [1] was “strongly inhibit hyaluronidase; also recorded: equivalent to or more active than ascorbyl palmitate”. In experiment [1] (setting [6]), the inhibition at 10 µM turned out to be 31% and the inhibition at 50 µM worked out at 76%. Further, in experiment [2], the “Inhibition … compared with vitamin C” value is on record as “greater than that of vitamin C”, the inhibition at 10 µM came to 4%, the inhibition at 20 µM worked out at 13% and the inhibition at 50 µM came to 35%. In addition, in experiment [2], the inhibition at 100 µM is 78% and the IC50 was found to be 66 µM.
With `CCCCCCCC/C=C\CCCCCCCC(=O)OC1=C(O)C(C2COC(C)(C)O2)OC1=O` (centres unmarked) [Molecule 6, 5-(2,2-dimethyl-1,3-dioxolan-4-yl)-4-hydroxy-2-oxo-2,5-dihydrofuran-3-yl oleate], the “Effect on hyaluronidase” value in experiment [1] is reported as “strongly inhibit hyaluronidase; also recorded: equivalent to or more active than ascorbyl palmitate”. In experiment [1] (setting [6]), the inhibition at 10 µM is 34% and the inhibition at 50 µM stood at 106%. For the same molecule, in experiment [2], the “Inhibition … compared with vitamin C” value is given as “greater than that of vitamin C”, the inhibition at 50 µM amounted to 7%, the inhibition at 100 µM stood at 49% and the IC50 was determined as 105 µM.

As a reminder, the inhibition is the change of the read-out against control, counted positive when it falls. The term IC50 denotes the point on the concentration scale where inhibition reaches its midpoint.
